Measured values taken from patent US20090264433A1, “Compounds, Compositions and Methods Comprising Triazine Derivatives” (Institute for OneWorld Health, priority 2008, published 2009).
Counter-ions that a name gives are not always drawn.

What follows are compounds tested against T1, CFTR channel in human colonic T84 cells (Homo sapiens, UniProt P13569) (assay: T84 assay (FLIPR membrane potential dye, forskolin/IBMX-stimulated CFTR)). Details: average of at least 2 runs unless annotated n = 1.
T1 construct: results in the phosphorylation and opening of CFTR anion channels; host or cells: human colonic T84 cells
Format: cell-based
Method in brief: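 T84 cells (25,000/well, grown overnight) were washed in HBSS with 10 mM Hepes, then loaded with FLIPR Red membrane potential dye for 45 min with or without compound. CFTR was stimulated with 10 μM forskolin plus 100 μM IBMX after a 10 s baseline. Depolarization was tracked as a fluorescence increase, read every second for 150 s.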

T1 sequence (P13569 whole entry): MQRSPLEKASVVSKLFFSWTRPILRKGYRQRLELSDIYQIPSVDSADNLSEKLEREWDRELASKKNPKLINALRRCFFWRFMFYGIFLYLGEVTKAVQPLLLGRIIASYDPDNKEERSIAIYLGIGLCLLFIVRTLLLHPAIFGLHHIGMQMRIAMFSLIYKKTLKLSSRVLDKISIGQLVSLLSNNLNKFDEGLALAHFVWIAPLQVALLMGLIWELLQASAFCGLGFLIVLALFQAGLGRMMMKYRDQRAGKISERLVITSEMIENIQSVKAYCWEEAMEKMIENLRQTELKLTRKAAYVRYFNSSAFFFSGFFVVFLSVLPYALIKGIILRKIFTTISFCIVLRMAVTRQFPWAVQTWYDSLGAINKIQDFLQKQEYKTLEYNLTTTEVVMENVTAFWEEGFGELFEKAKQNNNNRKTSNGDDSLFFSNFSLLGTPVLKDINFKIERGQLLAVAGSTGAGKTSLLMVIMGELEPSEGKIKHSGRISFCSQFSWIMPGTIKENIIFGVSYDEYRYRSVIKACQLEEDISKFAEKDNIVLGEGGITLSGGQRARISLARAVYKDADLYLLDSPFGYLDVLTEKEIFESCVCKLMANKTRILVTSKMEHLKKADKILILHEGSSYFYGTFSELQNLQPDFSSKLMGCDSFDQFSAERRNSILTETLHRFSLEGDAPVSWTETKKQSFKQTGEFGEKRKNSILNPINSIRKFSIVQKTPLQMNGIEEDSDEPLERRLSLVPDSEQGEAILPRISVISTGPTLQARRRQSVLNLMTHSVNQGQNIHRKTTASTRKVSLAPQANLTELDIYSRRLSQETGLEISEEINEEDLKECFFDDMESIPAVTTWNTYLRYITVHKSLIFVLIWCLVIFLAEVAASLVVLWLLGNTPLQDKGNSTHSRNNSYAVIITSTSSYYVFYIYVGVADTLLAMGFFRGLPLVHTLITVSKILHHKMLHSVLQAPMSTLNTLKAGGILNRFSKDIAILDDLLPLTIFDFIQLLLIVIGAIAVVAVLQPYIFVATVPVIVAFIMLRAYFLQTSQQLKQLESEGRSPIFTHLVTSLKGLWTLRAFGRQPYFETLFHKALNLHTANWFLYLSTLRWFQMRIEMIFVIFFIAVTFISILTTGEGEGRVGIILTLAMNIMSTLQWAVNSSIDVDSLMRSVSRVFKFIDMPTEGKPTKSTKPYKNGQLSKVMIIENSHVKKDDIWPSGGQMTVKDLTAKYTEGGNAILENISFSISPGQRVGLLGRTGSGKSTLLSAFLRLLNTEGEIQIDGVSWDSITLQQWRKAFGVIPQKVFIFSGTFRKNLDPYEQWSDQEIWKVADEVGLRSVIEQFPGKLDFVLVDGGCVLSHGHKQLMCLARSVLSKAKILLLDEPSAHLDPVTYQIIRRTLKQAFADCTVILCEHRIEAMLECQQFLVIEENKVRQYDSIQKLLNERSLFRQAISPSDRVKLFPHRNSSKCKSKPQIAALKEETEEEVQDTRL

Compound | IC50 [µM]
CN(Cc1ccncc1)Cc1ccc(COc2ncc(-c3cc(Cl)c(O)c(Cl)c3)nn2)cc1 [Compound 175, 2,6-dichloro-4-(3-(4-((methyl(pyridin-4-ylmethyl)amino)methyl)benzyl-oxy)-1,2,4-triazin-6-yl)phenol] | 11.7
CN(Cc1ccc(COc2ncc(-c3cc(Cl)c(O)c(Cl)c3)nn2)cc1)Cc1ccc(Oc2ccccn2)cc1 [Compound 176, 2,6-dichloro-4-(3-(4-((methyl(4-(pyridin-2-yloxy)benzyl)amino)methyl)benzyloxy)-1,2,4-triazin-6-yl)phenol] | 3.92
CN(Cc1ccc(COc2ncc(-c3cc(Cl)c(O)c(Cl)c3)nn2)cc1)Cc1cccc(-c2ccncc2)c1 [Compound 177, 2,6-dichloro-4-(3-(4-((methyl(3-(pyridin-4-yl)benzyl)amino)methyl)benzyl-oxy)-1,2,4-triazin-6-yl)phenol] | 2.22
Oc1c(Cl)cc(-c2cnc(OCc3ccc(CN4Cc5ccc(F)cc5C4)cc3)nn2)cc1Cl [Compound 178, 2,6-dichloro-4-(3-(4-((5-fluoroisoindolin-2-yl)methyl)benzyloxy)-1,2,4-triazin-6-yl)phenol] | 3.31
Oc1c(Cl)cc(-c2cnc(OCCc3ccc(F)cc3)nn2)cc1Cl [Compound 179, 2,6-dichloro-4-(3-(4-fluorophenethoxy)-1,2,4-triazin-6-yl)phenol] | 2.33
Oc1c(Cl)cc(-c2cnc(OCc3ccc(CN4CCc5ccc(Br)cc5C4)cc3)nn2)cc1Cl [Compound 180] | 3.54
CN(Cc1ccc(COc2ncc(-c3cc(Cl)c(O)c(Cl)c3)nn2)cc1)Cc1cccc2ccccc12 [Compound 181, 2,6-dichloro-4-(3-(4-((methyl(naphthalen-1-ylmethyl)amino)methyl)benzyl-oxy)-1,2,4-triazin-6-yl)phenol] | 9.15
Oc1c(Cl)cc(-c2cnc(OCc3ccc(CN4CCCc5ccccc54)cc3)nn2)cc1Cl [Compound 182] | 11.8
CN(Cc1ccc(COc2ncc(-c3cc(Cl)c(O)c(Cl)c3)nn2)cc1)Cc1cccc(Cl)c1Cl [Compound 183, 2,6-dichloro-4-(3-(4-(((2,3-dichlorobenzyl)(methyl)amino)methyl)benzyloxy)-1,2,4-triazin-6-yl)phenol] | 14.6
CN(Cc1ccc(COc2ncc(-c3cc(Cl)c(O)c(Cl)c3)nn2)cc1)Cc1ccc(F)c(F)c1 [Compound 184, 2,6-dichloro-4-(3-(4-(((3,4-difluorobenzyl)(methyl)amino)methyl)benzyloxy)-1,2,4-triazin-6-yl)phenol] | 4.94
CNC(=O)C1Cc2ccccc2CN1Cc1ccc(COc2ncc(-c3cc(Cl)c(O)c(Cl)c3)nn2)cc1 (stereo not shown) [Compound 185, 2-(4-((6-(3,5-dichloro-4-hydroxyphenyl)-1,2,4-triazin-3-yloxy)methyl)benzyl)-N-methyl-1,2,3,4-tetrahydroisoquinoline-3-carboxamide] | 4.64
CN(Cc1ccc(COc2ncc(-c3cc(Cl)c(O)c(Cl)c3)nn2)cc1)Cc1cccc(Oc2ccccn2)c1 [Compound 186, 2,6-dichloro-4-(3-(4-((methyl(3-(pyridin-2-yloxy)benzyl)amino)methyl)benzyloxy)-1,2,4-triazin-6-yl)phenol] | 6.97
CN(Cc1ccc(COc2ncc(-c3cc(Cl)c(O)c(Cl)c3)nn2)cc1)Cc1ccc(-c2ccncc2)cc1 [Compound 187, 2,6-dichloro-4-(3-(4-((methyl(4-(pyridin-4-yl)benzyl)amino)methyl)benzyl-oxy)-1,2,4-triazin-6-yl)phenol] | 3.79
CC(C)(C)C(=O)N1CCN(Cc2ccc(COc3ncc(-c4cc(Cl)c(O)c(Cl)c4)nn3)cc2)CC1 [Compound 188, 1-(4-(4-((6-(3,5-dichloro-4-hydroxyphenyl)-1,2,4-triazin-3-yloxy)methyl)benzyl)piperazin1-yl)-2,2-dimethylpropan-1-one] | 10.3
CN(Cc1ccc(COc2ncc(-c3cc(Cl)c(O)c(Cl)c3)nn2)cc1)Cc1ccc2ncccc2c1 [Compound 189, 2,6-dichloro-4-(3-(4-((methyl(quinolin-6-ylmethyl)amino)methyl)benzyl-oxy)-1,2,4-triazin-6-yl)phenol] | 4.72
CCN(CC)CC(NCc1ccc(COc2ncc(-c3cc(Cl)c(O)c(Cl)c3)nn2)cc1)c1ccccc1 (stereo not shown) [Compound 190, 2,6-dichloro-4-(3-(4-((2-(diethylamino)-1-phenylethylamino)methyl)benzyloxy)-1,2,4-triazin-6-yl)phenol] | 21
OCCN(Cc1ccc(COc2ncc(-c3cc(Cl)c(O)c(Cl)c3)nn2)cc1)Cc1cccnc1 [Compound 191, 2,6-dichloro-4-(3-(4-(((2-hydroxyethyl)(pyridin-3-ylmethyl)amino)methyl)benzyl-oxy)-1,2,4-triazin-6-yl)phenol] | 19.8

Compound | IC50 [µM]
CCN(Cc1ccccc1)Cc1ccc(COc2ncc(-c3cc(Cl)c(O)c(Cl)c3)nn2)cc1 [Compound 192, 4-(3-(4-((benzyl(ethyl)amino)methyl)benzyloxy)-1,2,4-triazin-6-yl)-2,6-dichlorophenol] | 2.13
Oc1c(Cl)cc(-c2cnc(OCc3ccc(CN4CCc5ccccc5C4c4ccncc4)cc3)nn2)cc1Cl (stereo not shown) [Compound 193] | 3.92
Oc1c(Cl)cc(-c2cnc(OCc3ccc(CNC(CN4CCCC4)c4ccccc4)cc3)nn2)cc1Cl (stereo not shown) [Compound 194, 2,6-dichloro-4-(3-(4-((1-phenyl2-(pyrrolidin-1-yl)ethylamino)methyl)benzyloxy)-1,2,4-triazin-6-yl)phenol] | 18.9
CN1CCN(CC(NCc2ccc(COc3ncc(-c4cc(Cl)c(O)c(Cl)c4)nn3)cc2)c2ccccc2)CC1 (stereo not shown) [Compound 195, 2,6-dichloro-4-(3-(4-((2-(4-methylpiperazin-1-yl)-1-phenylethylamino)methyl)benzyloxy)-1,2,4-triazin-6-yl)phenol] | 7.47
CN(Cc1ccc(COc2ncc(-c3cc(Cl)c(O)c(Cl)c3)nn2)cc1)C(CN1CCOCC1)c1ccccc1 (stereo not shown) [Compound 196, 2,6-dichloro-4-(3-(4-((methyl(2-morpholino-1-phenylethyl)amino)methyl)benzyloxy)-1,2,4-triazin-6-yl)phenol] | 5.89
CN(Cc1ccc(COc2ncc(-c3cc(Cl)c(O)c(Cl)c3)nn2)cc1)Cc1ccc(-c2ccccn2)cc1 [Compound 197, 2,6-dichloro-4-(3-(4-((methyl(4-(pyridin-2-yl)benzyl)amino)methyl)benzyl-oxy)-1,2,4-triazin-6-yl)phenol] | 2.64
CN(C)CCOc1ccc(CN(C)Cc2ccc(COc3ncc(-c4cc(Cl)c(O)c(Cl)c4)nn3)cc2)cc1 [Compound 198, 2,6-dichloro-4-(3-(4-(((4-(2-(dimethylamino)ethoxy)benzyl)(methyl)amino)methyl)benzyloxy)-1,2,4-triazin-6-yl)phenol] | 9.94
CN(C)CCCOc1ccc(CN(C)Cc2ccc(COc3ncc(-c4cc(Cl)c(O)c(Cl)c4)nn3)cc2)cc1 [Compound 199, 2,6-dichloro-4-(3-(4-(((4-(3-(dimethylamino)propoxy)benzyl)(methyl)amino)methyl)benzyl-oxy)-1,2,4-triazin-6-yl)phenol] | 7.54
CN(Cc1ccc(COc2ncc(-c3cc(Cl)c(O)c(Cl)c3)nn2)cc1)Cc1cccc(CN2CCOCC2)c1 [Compound 200, 2,6-dichloro-4-(3-(4-((methyl(3-(morpholinomethyl)benzyl)amino)methyl)benzyloxy)-1,2,4-triazin-6-yl)phenol] | 5.89
CN1CCCN(Cc2ccc(CN(C)Cc3ccc(COc4ncc(-c5cc(Cl)c(O)c(Cl)c5)nn4)cc3)cc2)CC1 [Compound 201, 2,6-dichloro-4-(3-(4-((methyl(4-((4-methyl-1,4-diazepan-1-yl)methyl)benzyl)amino)methyl)benzyloxy)-1,2,4-triazin-6-yl)phenol] | 9.99
CN(Cc1ccc(COc2ncc(-c3cc(Cl)c(O)c(Cl)c3)nn2)cc1)Cc1ccc(-c2ncccn2)cc1 [Compound 202, 2,6-dichloro-4-(3-(4-((methyl(4-(pyrimidin-2-yl)benzyl)amino)methyl)benzyl-oxy)-1,2,4-triazin-6-yl)phenol] | 1.87
Cc1cncc(Oc2cccc(CN(C)Cc3ccc(COc4ncc(-c5cc(Cl)c(O)c(Cl)c5)nn4)cc3)c2)n1 [Compound 203, 2,6-dichloro-4-(3-(4-((methyl(3-(6-methylpyrazin-2-yloxy)benzyl)amino)methyl)benzyloxy)-1,2,4-triazin-6-yl)phenol] | 2.43
CN(C)CCCOc1cccc(CN(C)Cc2ccc(COc3ncc(-c4cc(Cl)c(O)c(Cl)c4)nn3)cc2)c1 [Compound 204, 2,6-dichloro-4-(3-(4-(((3-(3-(dimethylamino)propoxy)benzyl)(methyl)amino)methyl)benzyl-oxy)-1,2,4-triazin-6-yl)phenol] | 2.43
CN(Cc1ccc(COc2ncc(-c3cc(Cl)c(O)c(Cl)c3)nn2)cc1)Cc1cccc(-c2ncccn2)c1 [Compound 205, 2,6-dichloro-4-(3-(4-((methyl(3-(pyrimidin-2-yl)benzyl)amino)methyl)benzyl-oxy)-1,2,4-triazin-6-yl)phenol] | 4.18
CN(Cc1ccc(COc2ncc(-c3cc(Cl)c(O)c(Cl)c3)nn2)cc1)Cc1cccc(-c2cncnc2)c1 [Compound 206, 2,6-dichloro-4-(3-(4-((methyl(3-(pyrimidin-5-yl)benzyl)amino)methyl)benzyl-oxy)-1,2,4-triazin-6-yl)phenol] | 9.6
CN(Cc1ccc(COc2ncc(-c3cc(Cl)c(O)c(Cl)c3)nn2)cc1)Cc1ccc(-c2cncnc2)cc1 [Compound 207, 2,6-dichloro-4-(3-(4-((methyl(4-(pyrimidin-5-yl)benzyl)amino)methyl)benzyl-oxy)-1,2,4-triazin-6-yl)phenol] | 2.99
CN(Cc1ccc(COc2ncc(-c3cc(Cl)c(O)c(Cl)c3)nn2)cc1)Cc1ccc(CN2CCCCC2)cc1 [Compound 208, 2,6-dichloro-4-(3-(4-((methyl(4-(piperidin-1-ylmethyl)benzyl)amino)methyl)benzyloxy)-1,2,4-triazin-6-yl)phenol, formate salt] | 8.24
